Experiments:
D(4) dopamine receptor = target: T1, D(4) dopamine receptor (Rattus norvegicus, UniProt P30729); test: Binding affinity for rat dopamine D4 receptor using [11C] radiotracer
T1 sequence (P30729 whole entry): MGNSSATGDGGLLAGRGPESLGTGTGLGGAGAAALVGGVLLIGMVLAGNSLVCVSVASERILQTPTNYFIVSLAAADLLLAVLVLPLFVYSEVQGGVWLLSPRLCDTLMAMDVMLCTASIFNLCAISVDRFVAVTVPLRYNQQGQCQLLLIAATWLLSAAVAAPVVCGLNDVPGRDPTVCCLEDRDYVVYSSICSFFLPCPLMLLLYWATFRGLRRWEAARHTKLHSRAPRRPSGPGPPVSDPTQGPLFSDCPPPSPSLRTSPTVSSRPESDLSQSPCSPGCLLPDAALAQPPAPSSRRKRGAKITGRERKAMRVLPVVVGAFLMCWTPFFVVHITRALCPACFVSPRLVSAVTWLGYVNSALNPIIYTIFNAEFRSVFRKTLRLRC

D(2) dopamine receptor = D(2) dopamine receptor (Rattus norvegicus, UniProt P61169); test: Binding affinity towards rat dopamine D2 receptor using [11C] radiotracer
[1] = target: Sigma non-opioid intracellular receptor 1 (Rattus norvegicus, UniProt Q9R0C9); test: Binding affinity for rat Opioid receptor sigma 1 using [11C] radiotracer
D(3) dopamine receptor = D(3) dopamine receptor (Rattus norvegicus, UniProt P19020); test: Binding affinity for rat dopamine D3 receptor using [11C]GR-218,231
[2] = target: D(3) dopamine receptor (Rattus norvegicus) (UniProt P19020)
D(3) dopamine receptor (Rattus norvegicus), sequence (P19020 whole entry): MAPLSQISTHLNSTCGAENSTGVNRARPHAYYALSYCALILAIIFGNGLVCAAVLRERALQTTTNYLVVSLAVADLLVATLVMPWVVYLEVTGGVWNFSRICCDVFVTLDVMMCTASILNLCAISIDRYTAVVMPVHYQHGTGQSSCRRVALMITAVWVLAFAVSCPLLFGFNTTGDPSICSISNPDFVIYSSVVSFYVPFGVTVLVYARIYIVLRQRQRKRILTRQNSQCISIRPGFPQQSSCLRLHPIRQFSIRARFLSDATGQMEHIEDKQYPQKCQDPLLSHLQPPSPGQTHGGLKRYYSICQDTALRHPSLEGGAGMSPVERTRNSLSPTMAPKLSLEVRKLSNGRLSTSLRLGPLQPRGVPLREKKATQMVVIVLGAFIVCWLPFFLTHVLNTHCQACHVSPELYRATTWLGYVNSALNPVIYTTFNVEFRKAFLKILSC

Sigma non-opioid intracellular receptor 1, sequence (Q9R0C9 whole entry): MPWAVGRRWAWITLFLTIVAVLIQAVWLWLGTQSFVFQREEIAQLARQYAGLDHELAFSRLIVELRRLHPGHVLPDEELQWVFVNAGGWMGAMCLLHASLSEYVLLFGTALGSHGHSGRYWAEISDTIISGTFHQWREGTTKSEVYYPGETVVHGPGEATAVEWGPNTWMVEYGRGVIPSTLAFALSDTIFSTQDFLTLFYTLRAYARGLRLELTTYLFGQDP
D(2) dopamine receptor, sequence (P61169 whole entry): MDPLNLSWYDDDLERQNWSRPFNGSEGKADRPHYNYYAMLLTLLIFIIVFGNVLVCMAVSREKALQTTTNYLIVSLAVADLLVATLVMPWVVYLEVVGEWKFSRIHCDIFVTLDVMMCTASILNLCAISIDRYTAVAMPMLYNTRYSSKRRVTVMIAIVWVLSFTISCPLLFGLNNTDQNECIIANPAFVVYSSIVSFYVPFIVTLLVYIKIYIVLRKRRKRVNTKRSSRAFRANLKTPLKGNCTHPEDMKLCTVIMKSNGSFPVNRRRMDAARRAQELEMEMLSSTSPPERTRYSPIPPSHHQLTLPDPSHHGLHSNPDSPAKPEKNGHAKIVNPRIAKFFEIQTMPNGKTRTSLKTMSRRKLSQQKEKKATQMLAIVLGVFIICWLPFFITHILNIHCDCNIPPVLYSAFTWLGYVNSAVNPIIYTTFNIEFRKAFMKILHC
D(3) dopamine receptor, sequence (P19020 whole entry): as the sequence (P19020 whole entry) above

SMILES	Ki (D(4) dopamine receptor) [nM]	Ki (D(2) dopamine receptor) [nM]	Ki [1] [nM]	Ki (D(3) dopamine receptor) [nM]	pKi [2]
COc1c(C(=O)NCCCCN2CCN(c3cccc(Cl)c3Cl)CC2)ccc2ccccc12	830	720	342	–	–
COc1cccc2cc(C(=O)NCCCCN3CCN(c4cccc(Cl)c4Cl)CC3)oc12	373	720	180	–	–
COc1cc(Br)cc(C(=O)NCCCCN2CCN(c3cccc(Cl)c3Cl)CC2)c1OC	–	–	–	2	–
CCCN(CCC)C1CCc2cc(CS(=O)(=O)c3ccc(OC)cc3)ccc2C1 (stereo not drawn)	–	–	–	–	9

From ChEMBL document CHEMBL1140382, “11C-labeling of n-[4-[4-(2,3-dichlorophenyl)piperazin-1-yl]butyl]arylcarboxamide derivatives and evaluation as potential radioligands for PET imaging of dopamine D3 receptors” (J Med Chem, 2005)
